The subject of data set [1] is HGC-27. The data set is described as follows: Induction of apoptosis in human HGC-27 cells assessed as viable cells at 0.5 uM incubated for 48 hrs by annexin V FITC/propidium iodide staining based flow cytometry (reference value: 93.0 %). Format: functional. The following applies: read-out: Activity.
Data set [2] concerns HGC-27. Description: Induction of apoptosis in human HGC-27 cells assessed as early apoptotic cells at 0.5 uM incubated for 48 hrs by annexin V FITC/propidium iodide staining based flow cytometry (reference value: 0.66 %). It counts as functional.
The test system of data set [3] is HGC-27. Description: Induction of apoptosis in human HGC-27 cells assessed as late apoptotic cells at 0.5 uM incubated for 48 hrs by annexin V FITC/propidium iodide staining based flow cytometry (reference value: 5.14 %). Format: functional.
Data set [4] relates to HGC-27. The data set is described as follows: Induction of apoptosis in human HGC-27 cells assessed as necrotic cells at 0.5 uM incubated for 48 hrs by annexin V FITC/propidium iodide staining based flow cytometry (reference value: 1.24 %). Format: functional.
Data set [5] relates to HGC-27. Description: Induction of apoptosis in human HGC-27 cells assessed as early apoptotic cells at 2 uM incubated for 48 hrs by annexin V FITC/propidium iodide staining based flow cytometry (reference value: 0.66 %). Format: functional.
In data set [6] the test system is HGC-27. The data set is described as follows: Induction of apoptosis in human HGC-27 cells assessed as late apoptotic cells at 2 uM incubated for 48 hrs by annexin V FITC/propidium iodide staining based flow cytometry (reference value: 5.14 %). It counts as functional.
The subject of data set [7] is HGC-27. The data set is described as follows: Induction of apoptosis in human HGC-27 cells assessed as early apoptotic cells at 8 uM incubated for 48 hrs by annexin V FITC/propidium iodide staining based flow cytometry (reference value: 0.66 %). Format: functional. Background: Flow cytometry measures light scatter and fluorescence of single cells or particles in a stream.

Data set [8] deals with MGC-803. Description: Induction of apoptosis in human MGC-803 cells assessed as early apoptotic cells at 2.5 uM incubated for 48 hrs by annexin V FITC/propidium iodide staining based flow cytometry (reference value: 0.42 %). Format: functional.
Data set [9] has as its system HGC-27. Description: Induction of apoptosis in human HGC-27 cells assessed as upregulation in cytochrome c expression at 0.5 to 8 uM incubated for 48 hrs by Western blot analysis. It counts as functional, cell-based. The following applies: dose 0.5-8 µM.
Data set [10] has as its system HGC-27. The data set is described as follows: Induction of apoptosis in human HGC-27 cells assessed as upregulation in cleaved PARP expression at 0.5 to 8 uM incubated for 48 hrs by Western blot analysis. It counts as functional, cell-based. The following applies: dose 0.5-8 µM.
Data set [11] has as its system HGC-27. Description: Induction of cell cycle arrest in human HGC-27 cells assessed as upregulation of p21 expression at 0.5 to 8 uM incubated for 48 hrs by Western blot analysis. The following applies: dose 0.5-8 µM. Format: functional, cell-based. On the technique in general: In western blotting, separated proteins are transferred to a membrane and probed.
Data set [12] has as its system MGC-803. Description: cells. Format: functional, cell-based. The following applies: Homo sapiens, MGC-803, 72 h.
Description: Cytotoxicity against human MGC-803 cells assessed as inhibition of cell growth incubated for 72 hrs by MTT assay
Data set [13] deals with HGC-27. The data set is described as follows: cells. Format: functional, cell-based. The following applies: Homo sapiens, HGC-27, 72 h.
Description: Cytotoxicity against human HGC-27 cells assessed as inhibition of cell growth incubated for 72 hrs by MTT assay
For data set [14], the system named is HGC-27. The data set is described as follows: Induction of apoptosis in human HGC-27 cells assessed as late apoptotic cells at 0.1 uM incubated for 48 hrs by annexin V FITC/propidium iodide staining based flow cytometry (reference value: 5.14 %). Format: functional.
Data set [15] concerns HGC-27. The data set is described as follows: Induction of apoptosis in human HGC-27 cells assessed as necrotic cells at 0.1 uM incubated for 48 hrs by annexin V FITC/propidium iodide staining based flow cytometry (reference value: 1.24 %). Format: functional.
The test system of data set [16] is HGC-27. The data set is described as follows: Induction of apoptosis in human HGC-27 cells assessed as necrotic cells at 0.4 uM incubated for 48 hrs by annexin V FITC/propidium iodide staining based flow cytometry (reference value: 1.24 %). It counts as functional.
Data set [17] relates to HGC-27. The data set is described as follows: Induction of apoptosis in human HGC-27 cells assessed as early apoptotic cells at 1.6 uM incubated for 48 hrs by annexin V FITC/propidium iodide staining based flow cytometry (reference value: 0.66 %). It counts as functional.
The test system of data set [18] is MGC-803. Description: Induction of apoptosis in human MGC-803 cells assessed as late apoptotic cells at 20 uM incubated for 48 hrs by annexin V FITC/propidium iodide staining based flow cytometry (reference value: 4.07 %). Format: functional.
The test system of data set [19] is HGC-27. The data set is described as follows: Induction of cell cycle arrest in human HGC-27 cells assessed as reduction in accumulation of cells at G0/G1 phase at 0.1 to 1.6 uM incubated for 24 hrs by PI staining based flow cytometry analysis. It counts as functional. The conditions noted are these: dose 0.1-1.6 µM.
Data set [20] can be described thus: Acute toxicity in Kunming mouse assessed as effect on liver pathology at 1000 mg/kg, po measured after 14 days. Format: organism-based. The following applies: in vivo, 336 h, time 14 day.
The nature of data set [21]: Acute toxicity in Kunming mouse assessed as effect on kidney pathology at 1000 mg/kg, po measured after 14 days. Format: organism-based. The following applies: in vivo, 336 h, time 14 day.
The test system of data set [22] is HGC-27. Description: Antitumor activity against human HGC-27 cells xenografted in BALB/c mouse assessed as tumor growth inhibition at 150 mg/kg, po bid administered for 19 days. Format: functional. The conditions noted are these: HGC-27, 456 h, time 19 day, read-out: TGI. On the technique in general: Xenograft models place foreign cells or tissue in a host animal.

A short description of data set [23]: Toxicity in BALB/c mouse xenografted with human HGC-27 cells assessed as body weight loss at 75 to 150 mg/kg, po bid administered for 19 days and measured every other day. It counts as organism-based. The following applies: in vivo, 456 h, dose 75-150 mg/kg, time 19 day.
Data set [24] is described as follows: Toxicity in BALB/c mouse xenografted with human HGC-27 cells assessed as hematocrit level at 150 mg/kg, po bid for 19 days. It counts as organism-based. The following applies: in vivo, 456 h, time 19 day.
A short description of data set [25]: Toxicity in BALB/c mouse xenografted with human HGC-27 cells assessed as mean corpuscular volume at 150 mg/kg, po bid for 19 days. It counts as organism-based. The conditions noted are these: in vivo, 456 h, time 19 day.
Data set [26] can be described thus: Toxicity in BALB/c mouse xenografted with human HGC-27 cells assessed as lymphocyte level at 75 mg/kg, po bid for 19 days. Format: organism-based. The conditions noted are these: in vivo, 456 h, time 19 day.
A short description of data set [27]: Toxicity in BALB/c mouse xenografted with human HGC-27 cells assessed as monocyte level at 75 mg/kg, po bid for 19 days. It counts as organism-based. The following applies: in vivo, 456 h, time 19 day.
Data set [28] can be described thus: Toxicity in BALB/c mouse xenografted with human HGC-27 cells assessed as hematocrit level at 75 mg/kg, po bid for 19 days. It counts as organism-based. The conditions noted are these: in vivo, 456 h, time 19 day.
Data set [29] is described as follows: Toxicity in BALB/c mouse xenografted with human HGC-27 cells assessed as mean corpuscular volume at 75 mg/kg, po bid for 19 days. Format: organism-based. The conditions noted are these: in vivo, 456 h, time 19 day.
Data set [30] in a line: Toxicity in BALB/c mouse xenografted with human HGC-27 cells assessed as platelet level at 75 mg/kg, po bid for 19 days. Format: organism-based. The following applies: in vivo, 456 h, time 19 day.
Data set [31] relates to HGC-27. Description: Induction of apoptosis in human HGC-27 cells assessed as upregulation in Bax expression at 0.1 to 1.6 uM incubated for 48 hrs by Western blot analysis. Format: functional, cell-based. The following applies: dose 0.1-1.6 µM.
Data set [32] has as its system HGC-27. Description: In vivo induction of cell cycle arrest in human HGC-27 cells xenografted in BALB/c mouse assessed as increase in p27 expression at 75 to 150 mg/kg, po bid administered for 19 days and measured by immunohistochemical analysis. Format: functional, organism-based. The following applies: dose 75-150 mg/kg, time 19.0 day.
For data set [33], the system named is HGC-27. Description: In vivo induction of cell cycle arrest in human HGC-27 cells xenografted in BALB/c mouse assessed as decrease in CDK2 expression at 75 to 150 mg/kg, po bid administered for 19 days and measured by immunohistochemical analysis. Format: functional, organism-based. The following applies: dose 75-150 mg/kg, time 19.0 day.
For data set [34], the system named is HGC-27. The data set is described as follows: Induction of cell cycle arrest in human HGC-27 cells assessed as upregulation of p21 expression at 0.1 to 1.6 uM incubated for 48 hrs by Western blot analysis. It counts as functional, cell-based. The conditions noted are these: dose 0.1-1.6 µM.
The next data set is described as follows: in vitro. The conditions noted are these: human, GES1 cells.

Values joined by “and” are separate entries in the source; they are usually repeats but may differ in a detail not shown here. Equal values may be shown once. Active and inactive are the calls of the source. The calls are words filed in the database; no cut-off is given here.

Description for in vitro: Cytotoxicity against human GES1 cells assessed as inhibition of cell growth incubated for 72 hrs by MTT assay

Take `O=C(NCc1ccc(NC(=O)c2ccccc2N2CCCC2)cc1)OCc1cccnc1`: the viability at 0.5 µM in the data set on HGC-27 [1] was 79.1%. Moreover, the Activity with HGC-27 [2] was found to be 0.92%; in the data set with HGC-27 [3], 17.4%; with HGC-27 [4] it was 2.55%; in the data set on HGC-27 [5], 1.59%; in the data set on HGC-27 [6], 55.9%; in the data set with HGC-27 [7], 3.68%. Also, the Activity in the data set with MGC-803 [8] was 0.85%. Also, the outcome in the data set with HGC-27 [9], in the data set on HGC-27 [10] and in the data set with HGC-27 [11] was Active.

A word on the IC50: it is the concentration that inhibits the measured activity by half. Turning to `O=C(NCc1ccc(NC(=O)c2cc(F)ccc2N2CCCC2)cc1)OCc1cccnc1`, the IC50 was 10.7 µM with MGC-803 [12] and 0.28 µM in the data set on HGC-27 [13]. Moreover, the Activity in the data set with HGC-27 [14] is recorded as 14.2%; in the data set on HGC-27 [15], 0.86%; with HGC-27 [16], 5.43%; in the data set with HGC-27 [17] it was 0.31%; in the data set on MGC-803 [18] it was 19.8%; in data set [20], “Non-Toxic”. The Activity entry in [21] is “Non-Toxic”; in data set [23], “Non-Toxic”; in [24], 55.38%; in [25], 49.83 fL; in [26], 5.03 10^9/L and 6.57%; in data set [27], 1.57 10^9/L and 2.03%. Besides, the figures for the Activity in [28], in data set [29] and in [30] were 58.3%, 49.83 fL and 1057.33 10^9/L, respectively. Further, the result in the data set with HGC-27 [19], in the data set with HGC-27 [31], in the data set with HGC-27 [32], in the data set on HGC-27 [33] and with HGC-27 [34] was Active. In addition, in the data set on HGC-27 [22], the inhibition in vivo at 150 mg/kg came to 68.9%. In “in vitro”, the concentration for half-maximal inhibition (IC50) at 72 h came out at 90.2 µM.

The values above are taken from ChEMBL document CHEMBL5143508, “Design, synthesis and biological evaluation of novel o-aminobenzamide derivatives as potential anti-gastric cancer agents in vitro and in vivo” (Eur J Med Chem, 2022).
